This note sets out measurements from US20250127169A1, “PLANTS HAVING INCREASED TOLERANCE TO HERBICIDES” (BASF Agricultural Solutions Seed US LLC, priority 2021, published 2025).

Values joined by “and” are separate entries in the source; they are usually repeats but may differ in a detail not shown here. Equal values may be shown once.

Experiment [1] concerns the target PPO2 AMATU L397E, F420V (variant based on SEQ ID NO: 1) (Amaranthus tuberculatus, UniProt Q0NZW9, F420V/L397E). Put plainly: biochemical.
In experiment [2] the target is PPO2 AMATU L397Q, F420M (variant based on SEQ ID NO: 1) (Amaranthus tuberculatus, UniProt Q0NZW9, F420M/L397Q). Kind of experiment: biochemical.

For the molecule `CCOC(=O)C(OC)Oc1ccccc1Oc1cc(-n2c(=O)cc(C(F)(F)F)n(C)c2=O)c(F)cc1Br` (stereo not drawn) [phenyluracil 2, ethyl 2-[2-[2-bromo-4-fluoro-5-[3-methyl-2,6-dioxo-4-(trifluoromethyl)pyrimidin-1-yl]phenoxy]phenoxy]-2-methoxy-acetate], the results for the IC50 in experiment [1] and in experiment [2] were 6.79 µM and 0.159 µM, respectively.

On to `COC(=O)C(OC)Oc1ccccc1Oc1cc(-n2c(=O)cc(C(F)(F)F)n(C)c2=O)c(F)cc1Br` (stereo not drawn) [phenyluracil 1, methyl 2-[2-[2-bromo-4-fluoro-5-[3-methyl-2,6-dioxo-4-(trifluoromethyl)pyrimidin-1-yl]phenoxy]phenoxy]-2-methoxy-acetate], for which the IC50 in experiment [1] is 5.79 µM and 5.45 µM; in experiment [2] it was 0.357 µM and 0.354 µM.

Consider `COC(Oc1ccccc1Oc1cc(-n2c(=O)cc(C(F)(F)F)n(C)c2=O)c(F)cc1Br)C(=O)O` (stereo not drawn) [phenyluracil 3, 2-[2-[2-bromo-4-fluoro-5-[3-methyl-2,6-dioxo-4-(trifluoromethyl)pyrimidin-1-yl]phenoxy]phenoxy]-2-methoxy-acetic acid], for which the IC50 in experiment [1] was determined as 2.81 µM; in experiment [2], 0.143 µM.

Usually IC50 stands for the concentration needed to halve the response being measured. A low value points to higher potency.
